Assay results taken from US20220204490A1, “Substituted 4-[5-(Benzofuran-2-yl)-1,2,4-Oxadiazol-3-yl]Benzoic Acid Compounds for Use in Therapy for Neuropathic Pain” (King's College London, priority 2019, published 2022).

Columns and labels:
[1] = tested on: rats subjected to L5 SNL; assay: Pain threshold, thermal hyperalgesia, hot plate (radiant heat paw withdrawal latency); type: in vivo; details: rat L5 SNL; 3 mg/kg po every other day for 4 weeks; versus placebo; FIG. 2
Source text: (§1) Adult male Sprague-Dawley rats (150-200 g) were housed under natural light: dark cycles and provided water and food ad lib. They were habituated to the testing paradigms for 3-5 days before data collection. All protocols were approved by the Animal Care and Use Committee of Kings College London and UK Home Office.
(§2) Animals were studied using the standard model for neuropathic pain (lumbar 5 spinal nerve ligation, L5 SNL; see, e.g., Kim et al., 1992). This is the most widely used model in neuropathic pain studies because of its high reproducibility of spontaneous and evoked pain (hyperalgesia, allodynia) and the absence of autotomy (see, e.g., Barrot, 2012; Huang et al., 2016).
(§3) Adult rats received a partial nerve ligation of the left sciatic nerve (see, e.g., Seltzer et al., 1990) under isoflurane (Abbott Animal Health) inhalation anesthesia. A small incision was made midway up the left thigh to expose the sciatic nerve. The nerve was carefully cleared of surrounding connective tissues at a site near the trochanter just distal to the point at which the posterior biceps semitendinosus nerve branches off the common sciatic nerve. […]
(§4) Pain thresholds were measured according to the methods described below, baseline at 1 day prior to surgery, and at 1, 6, 9, 16, 23, and 28 days after surgery.
Thermal hyperalgesia was assessed using a modified method of Hargreaves et al., 1988. […]

[2] = tested on: rats subjected to L5 SNL; assay: Standard model for neuropathic pain (L5 SNL), behavioural studies overall; type: in vivo; details: rat L5 SNL; treated for 4 weeks, 3 mg/kg po every other day; versus placebo
Source text: as §1, §2, §3, §4

[3] = tested on: tumour necrosis factor receptor 1 (TNFR1); assay: RT-qPCR analysis of TNFR1 expression in spinal cord after nerve injury; type: in vivo; details: rat; 14 days after injury; 3 mg/kg po every other day; versus placebo; FIG. 6
Experimental: (§5) Two groups of 11 rats were studied. In each group, the rats received partial nerve ligation of the left sciatic nerve (L5 SNL), as described above. In one group, the rats were treated with test compound; in the other group, the rats were treated with placebo. In each group, 8 animals were used for behavioral studies (for 28 days following surgery), as described below. In each group, 3 animals were used for tissue analysis (at 14 days following surgery), as described below.
(§6) Rats were treated with treatment solution or a placebo, orally, starting on the day after surgery and subsequently every other day for 4 weeks.
(§7) For treated animals, treatment solution was administered orally (po), by oral gavage, to give a dose of 3 mg/kg.
(§8) Fourteen days after injury, three rats from each group were sacrificed. […] Total RNA was isolated with the Qiagen RNeasy® Mini kit and reverse transcribed with a QuantiTect® Reverse Transcription kit (Qiagen). Levels of tumour necrosis factor α (TNFα) and tumour necrosis factor receptor 1 (TNFR1) expression were quantitated in triplicate, relative to glyceraldehyde 3-phosphate dehydrogenase (GAPDH) and triplicate non-template controls for each gene, by RT-qPCR analysis on a LightCycler® 480 instrument with LightCycler® SYBR® Green 1 Master reagent (Roche). […]

[4] = tested on: tumour necrosis factor α (TNFα); assay: RT-qPCR analysis of TNFα expression in spinal cord after nerve injury; type: in vivo; details: rat; 14 days after injury; 3 mg/kg po every other day; versus placebo; FIG. 5
Experimental: as §5, §6, §7, §8

[5] = tested on: rats subjected to L5 SNL; assay: Pain threshold, mechanical allodynia (von Frey hairs) after nerve ligation; type: in vivo; details: rat L5 SNL; 3 mg/kg po every other day for 4 weeks; versus placebo; FIG. 1
Source text: as §1, §2
(§9) Adult rats received a partial nerve ligation of the left sciatic nerve (see, e.g., Seltzer et al., 1990) under isoflurane (Abbott Animal Health) inhalation anesthesia. A small incision was made midway up the left thigh to expose the sciatic nerve. […]
as §4
Static mechanical withdrawal thresholds were assessed by applying von Frey hairs (Touch Test, Stoelting, Ill., USA) to the plantar surface of the hind paw. […] A positive response was recorded when a 40% withdrawal response occurred over 5 applications. […]

[6] = tested on: brain-derived neurotrophic factor (BDNF); assay: Immunocytochemistry of BDNF in spinal cord after nerve injury; type: in vivo; details: rat; 14 days after injury; 3 mg/kg po every other day; versus placebo; FIG. 7
Experimental: as §5, §6
For treated animals, treatment solution was administered orally (po), by oral gavage, to give a dose of 3 mg/kg. […]
Multichannel fluorescence (DAPI-FITC-Texas Red filter set) images were captured using a Zeiss LSM 700 laser-scanning confocal microscope. […] Axiovision software was used to collect information on pixel immunoreactivity used for quantitative purposes. […]
FIG. 7 is a bar graph showing the BDNF level (arbitray units) in the dorsal horn ipsilateral to peripheral nerve injury for (a) rats treated with placebo and (b) rats treated with BOBA-001. Five serial sections per injured cord analysed, from 3 animals per group (n=3). […]

[7] = tested on: axonal outgrowth; details: models of nerve injury; earlier work of the Applicant (Borthwick et al., 2016); cited from earlier work
[8] = tested on: rats subjected to L5 SNL; assay: Pain threshold, thermal hyperalgesia, cold plate; type: in vivo; details: rat L5 SNL; 3 mg/kg po every other day for 4 weeks; plate at 4 °C; versus placebo; FIG. 3
Source text: as §1, §2, §9, §4
Withdrawal of the hind paw in response to painful cold stimulation was assessed using an Incremental Hot/Cold Plate (IITC Life Sciences) set at 4±0.1° C. […] The latency to withdraw the paw was measured to the nearest 0.01 seconds. […]

[9] = tested on: rats subjected to L5 SNL; assay: Pain threshold, Randall-Selitto test (paw pressure threshold); type: in vivo; details: rat L5 SNL; 3 mg/kg po every other day for 4 weeks; versus placebo; FIG. 4
Source text: as §1, §2, §9, §4
Mechanical nociceptive thresholds were evaluated using an Analgesy-Meter (Ugo Basile, Comerio, Italy) (see, e.g., Raghavendra et al., 2003). […] The pressure required to elicit paw withdrawal, the paw pressure threshold, in grams, was determined. […]

Cc1ccc(C)c2oc(-c3nc(-c4ccc(C(=O)O)cc4)no3)cc12 [BOBA-001, 4-(5-(4,7-Dimethylbenzofuran-2-yl)-1,2,4-oxadiazol-3-yl)benzoic acid]
hot plate paw withdrawal (thermal threshold) [1]: significant improvement
amelioration of pain [2]: significant amelioration of pain
TNFR1: GAPDH expression ratio in the dorsal horn ipsilateral to peripheral nerve injury [3]: significantly down-regulated
TNFα: GAPDH expression ratio in the dorsal horn ipsilateral to peripheral nerve injury [4]: significantly down-regulated
mechanical paw withdrawal threshold (von Frey) [5]: significant improvement
BDNF level in the dorsal horn ipsilateral to peripheral nerve injury [6]: significantly down-regulated
axonal outgrowth [7]: causes axonal outgrowth
cold plate paw withdrawal (thermal threshold) [8]: significant improvement
Randall Sellito paw withdrawal threshold (mechanical threshold) [9]: significant improvement
